Consider five compounds from US20050191710A1, “Method for labeling a membrane-localized protein” (priority 2004, published 2005).

The target in test [1] is T1, BirA (Escherichia coli, UniProt P06709). The following applies: estimated from initial rate of biotinyl-5′-AMP synthesis; read-out: KM for ATP; cited from earlier work.
For test [2], the target named is T1, BirA. Conditions: read-out: equilibrium dissociation constant; cited from earlier work.
In test [3] the test system is CFTR. The test can be described thus: cAMP-stimulated iodide efflux from stably transfected cells. Conditions: for peak iodide efflux: compared to wild-type CFTR. It counts as cell-based, baby hamster kidney (BHK) cells. The source says: Since CFTR functions as a chloride channel, responsiveness of the tagged channels to PKA was examined by comparing cAMP-stimulated iodide efflux from cells stably transfected with 1) wild-type CFTR, 2) CFTR with a polyhistidine tag, 3) wild-type CFTR bearing both polyhistidine and biotinylation tags or 4) a ΔF508 CFTR construct that was identical to 3) except for deletion of phenylalanine 508. […] Therefore, similar to epitope-tagging of the fourth extracellular loop (Benharouga, et al. (2003) J. Biol. Chem. 278:22079-22089; Schultz, et al. (1997) Am. J. Physiol. Cell Physiol. 273:C2080-C2089), iodide efflux responses to PKA were preserved after insertion of a biotinylation target sequence.
Iodide effluxes were measured using standard methods (Cormet-Boyaka, et al. (2002) Proc. Natl. Acad. Sci. USA 99:12477-12482; Cormet-Boyaka, et al. (2002) Proc. Natl. Acad. Sci. USA 99:12477-12482). Briefly, cells were incubated with iodide loading buffer (136 mM NaI, 3 mM KNO3, 2 mM Ca(NO3)2, 11 mM glucose and 20 mM HEPES, pH 7.4) for 1 hour at room temperature. Extracellular NaI was removed by rinsing with iodide-free efflux buffer (same as loading buffer except NaNO3 replaced NaI). Samples were collected by removing the efflux buffer at 1 minute intervals and replacing it with fresh solution. The first three samples established the baseline efflux rate, then cpt-cAMP was added and samples were collected at 1 minute intervals in the continuous presence of cpt-cAMP for 15 minutes. Iodide was measured using an iodide sensitive electrode (Orion Research, Inc., Boston, Mass., USA) and converted to nmoles released/minutes.

T1 sequence (P06709 whole entry): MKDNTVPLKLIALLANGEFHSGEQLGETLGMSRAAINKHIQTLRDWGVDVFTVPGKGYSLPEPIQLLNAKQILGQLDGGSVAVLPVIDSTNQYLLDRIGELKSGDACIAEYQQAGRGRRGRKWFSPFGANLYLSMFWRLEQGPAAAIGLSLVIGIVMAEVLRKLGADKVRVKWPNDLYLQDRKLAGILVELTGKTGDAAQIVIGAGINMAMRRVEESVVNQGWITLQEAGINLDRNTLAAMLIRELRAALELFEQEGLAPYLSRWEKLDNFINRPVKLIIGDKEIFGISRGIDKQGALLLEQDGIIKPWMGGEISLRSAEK

By Km is commonly meant the substrate concentration at which the rate is half of its maximum. As for `Nc1ncnc2c1ncn2[C@@H]1O[C@H](COP(=O)(O)OP(=O)(O)OP(=O)(O)O)[C@@H](O)[C@H]1O` [ATP], in test [1], the Michaelis constant (Km) is 3000 µM.

Take `O=C(O)CCCC[C@@H]1SC[C@@H]2NC(=O)N[C@@H]21` [biotin]: the Kd in test [2] was 10 to 100 nM.

Turning to “CFTR with a polyhistidine tag: CFTR with glycine and ten histidines added to the C-terminus [reference compound]”, the peak iodide efflux result in test [3] (cAMP-stimulated) is reported as “not diminished”.

Turning to “wild-type CFTR bearing both polyhistidine and biotinylation tags: CFTR-biotintag with ten histidines at the C-terminus for purification on nickel-NTA beads”, in test [3] (cAMP-stimulated), the “delay of iodide efflux compared to wild-type CFTR” value is roughly 1 min and the peak iodide efflux result is given as “not diminished”.

As to “ΔF508CFTR-biotintag: ΔF508 CFTR construct with biotinylation tag, deletion of phenylalanine 508 (disease mutation)”, the cAMP-stimulated iodide efflux entry in test [3] is “not detected”.
